Measured values published in PMC7576618 (British Journal of Clinical Pharmacology, 2020).
Several values for one entry are separate records, joined by “and”; a condition that tells them apart may be missing. Equal entries are not always repeated. Entries after “also recorded” stand apart in the source; their conditions may differ.

Columns and labels:
[1] = SAD study: plasma pharmacokinetics after single oral TS-134; type: in vivo, human; conditions: for AUC / Cmax / half-life / Tmax: both, human, plasma; for AUC: AUC0‐inf; for AUC / Cmax: mean (CV[%]); for Tmax: median
[2] = SAD study: urinary excretion; type: in vivo, human; conditions: for CL renal: both, human, oral
[3] = target: mGlu3 receptor; conditions: read-out: in vitro EC50 for mGlu3 receptor; authors' assay system; cited from earlier work
[4] = test system: memantine‐increased 2‐deoxy‐D‐glucose uptake in the prefrontal cortex; assay: Memantine-induced 2-deoxy-D-glucose uptake in the prefrontal cortex; conditions: mice; MGS0008 0.3, 1, 3 mg kg^-1 s.c.; memantine 30 mg kg^-1 s.c.
[5] = test system: phencyclidine‐induced locomotor hyperactivity in rats; assay: Phencyclidine-induced locomotor hyperactivity; conditions: MGS0008 1, 3, 10 mg kg^-1 p.o., phencyclidine 3 mg kg^-1 s.c.
[6] = rats; cited from earlier work
[7] = test system: methamphetamine‐induced locomotor hyperactivity in rats; assay: Methamphetamine-induced locomotor hyperactivity; conditions: MGS0008 1, 3, 10 mg kg^-1 p.o., methamphetamine 1 mg kg^-1 s.c.
[8] = test system: spontaneous locomotor activity in rats; assay: Spontaneous locomotor activity; conditions: doses similar to those which block psychostimulants‐induced hyperlocomotion
[9] = SAD study Part B: CSF pharmacokinetics of MGS0008 after 10 mg TS-134; type: in vivo, human; conditions: 10 mg TS‐134 under fed condition
[10] = MAD study: plasma pharmacokinetics after multiple oral dose titration of TS-134; type: in vivo, human; conditions: for AUC / half-life: both, human, plasma, oral, MAD Day 14, fed; for AUC: AUC0‐tau, mean (CV[%]); for half-life: t1/2, mean (CV[%])
[11] = test system: MK‐801‐induced social recognition deficits in rats; assay: MK-801-induced social recognition deficits; conditions: MGS0008 1, 3, 10 mg kg^-1 p.o., MK-801 0.2 mg kg^-1 i.p.
[12] = MAD study: urinary excretion; type: in vivo, human; conditions: urine, MAD Day 14; for CL renal: both, human, oral, CLr, mean (CV[%])
[13] = oral, 5 mg, SAD Parts A and C, 5 mg fasted (n = 6)
[14] = oral, 10 mg, SAD Parts A and C, 10 mg fasted (n = 4)
[15] = oral, 10 mg, SAD Parts A and C, 10 mg fed (n = 3)
[16] = oral, 20 mg, SAD Parts A and C, 20 mg fasted (n = 3)
[17] = oral, 20 mg, SAD Parts A and C, 20 mg fed (n = 3)

N[C@]1(C(=O)O)[C@H]2[C@@H](C[C@@H]1F)[C@@H]2C(=O)O [MGS0008, (1S,2S,3S,5R,6S)‐2‐amino‐3‐fluorobicyclo[3.1.0]hexane‐2,6‐dicarboxylic acid]
reduction of plasma AUC in the fed group (food effect) ([1]; SAD, 10 and 20 mg TS‐134): ≤ 25% | reduction of plasma Cmax in the fed group (food effect) ([1]; SAD, 10 and 20 mg TS‐134): up to 57% | AUC [1, 13]: 278 ng·h/mL | Cmax [1, 13]: 25.9 ng/mL | half-life ([1]; oral, 5 mg, t1/2, mean (CV[%]), SAD Parts A and C, 5 mg fasted (n = 6)): 7.75 h | Tmax [1, 13]: 2 h | AUC [1, 14]: 535 ng·h/mL | AUC [1, 15]: 390 ng·h/mL | Cmax [1, 14]: 60.6 ng/mL | Cmax [1, 15]: 28.1 ng/mL | half-life ([1]; oral, 10 mg, t1/2, mean (CV[%]), SAD Part B, 10 mg fed (n = 7)): 8.49 h | half-life ([1]; oral, 10 mg, t1/2, mean (CV[%]), SAD Parts A and C, 10 mg fasted (n = 4)): 8.41 h | half-life ([1]; oral, 10 mg, t1/2, mean (CV[%]), SAD Parts A and C, 10 mg fed (n = 3)): 8.7 h | Tmax [1, 14]: 2 h | Tmax [1, 15]: 4 h | AUC [1, 16]: 840 ng·h/mL | AUC [1, 17]: 677 ng·h/mL | Cmax [1, 16]: 89.4 ng/mL | Cmax [1, 17]: 60.2 ng/mL | half-life ([1]; oral, 20 mg, t1/2, mean (CV[%]), SAD Parts A and C, 20 mg fasted (n = 3)): 6.96 h | half-life ([1]; oral, 20 mg, t1/2, mean (CV[%]), SAD Parts A and C, 20 mg fed (n = 3)): 6.91 h | Tmax [1, 16]: 3 h | Tmax [1, 17]: 2 h | half-life ([1]; po, terminal half‐life (t1/2) in plasma, single and multiple oral administration of TS‐134 (SAD and MAD studies)): ~10 h | plasma Cmax of MGS0008 relative to that of MGS0274 ([1]; molar ratio, SAD and MAD studies): approximately 6 fold | plasma AUC of MGS0008 relative to that of MGS0274 ([1]; molar ratio, all treatment groups with or without food): approximately 30 fold | urinary excretion rate, % of the administered doses ([2]; SAD and MAD studies, dose range 5–80 mg): 29.38 to 69.01% and 29.38–69.01% | CL renal ([2]; urine and plasma, renal clearance, range, SAD and MAD studies): 70.6 to 103 mL/min | CL renal ([2]; urine, 5 mg, CLr, mean (CV[%]), SAD Parts A and C, 5 mg fasted (n = 6)): 101 mL/min | CL renal ([2]; urine, 10 mg, CLr, mean (CV[%]), SAD Parts A and C, 10 mg fasted (n = 4)): 89.8 mL/min | CL renal ([2]; urine, 10 mg, CLr, mean (CV[%]), SAD Parts A and C, 10 mg fed (n = 3)): 103 mL/min | CL renal ([2]; urine, 20 mg, CLr, mean (CV[%]), SAD Parts A and C, 20 mg fasted (n = 3)): 73.9 mL/min | CL renal ([2]; urine, 20 mg, CLr, mean (CV[%]), SAD Parts A and C, 20 mg fed (n = 3)): 70.6 mL/min | Fe (0–48), mean (CV[%]) ([2]; urine, SAD Part B, 10 mg fed (n = 7)): 55.77 (15.99) % | Fe (0–48), mean (CV[%]) ([2]; urine, SAD Parts A and C, 5 mg fasted (n = 6)): 69.01 (10.23) % | Fe (0–48), mean (CV[%]) ([2]; urine, SAD Parts A and C, 10 mg fasted (n = 4)): 60.61 (36.10) % | Fe (0–48), mean (CV[%]) ([2]; urine, SAD Parts A and C, 10 mg fed (n = 3)): 49.65 (38.35) % | Fe (0–48), mean (CV[%]) ([2]; urine, SAD Parts A and C, 20 mg fasted (n = 3)): 38.55 (65.52) % | Fe (0–48), mean (CV[%]) ([2]; urine, SAD Parts A and C, 20 mg fed (n = 3)): 29.38 (52.53) % | EC50 [3]: 45.4 nM | effect on memantine‐increased 2‐deoxy‐D‐glucose uptake (2‐DG6P) in the prefrontal cortex [4]: attenuated | effect on phencyclidine‐induced locomotor hyperactivity [5]: significantly attenuated | CSF‐to‐plasma AUC ratio [6]: 2.8% | presence in the cerebrospinal fluid (CSF) after oral administration of MGS0008 [6]: detected | effect on methamphetamine‐induced locomotor hyperactivity [7]: significantly attenuated | effect on spontaneous locomotor activity [8]: significantly reduced | mean CSF Cmax (molar) [9]: 6.12 nM | dose proportionality of steady‐state plasma Cmax and AUC ([10]; MAD, 5–80 mg): increased dose proportionally; also recorded: dose proportional increases | time for plasma trough concentrations to reach steady state ([10]; after initiating multiple doses of target dose levels, data not shown): ≤ 2 days | AUC ([10]; 5 mg, 5 mg (n = 8)): 233 ng·h/mL | half-life ([10]; 5 mg, 5 mg (n = 8)): 9.68 h | AUC ([10]; 10 mg, 10 mg (n = 8)): 475 ng·h/mL | half-life ([10]; 10 mg, 10 mg (n = 8)): 10.9 h | AUC ([10]; 20 mg, 20 mg (n = 8)): 817 ng·h/mL | half-life ([10]; 20 mg, 20 mg (n = 8)): 10.4 h | AUC ([10]; 40 mg, 40 mg (n = 8)): 1640 ng·h/mL | half-life ([10]; 40 mg, 40 mg (n = 8)): 10.3 h | AUC ([10]; 60 mg, 60 mg (n = 8)): 3100 ng·h/mL | half-life ([10]; 60 mg, 60 mg (n = 8)): 9.43 h | effect on MK‐801‐induced impaired social memory [11]: significantly reversed | CL renal ([12]; 5 mg, 5 mg (n = 8)): 85.2 mL/min | CL renal ([12]; 10 mg, 10 mg (n = 8)): 88.2 mL/min | CL renal ([12]; 20 mg, 20 mg (n = 8)): 103 mL/min | CL renal ([12]; 40 mg, 40 mg (n = 8)): 93.3 mL/min | CL renal ([12]; 60 mg, 60 mg (n = 8)): 78.7 mL/min | Fe (0–24), mean (CV[%]) ([12]; 5 mg (n = 8)): 48.03 (36.10) % | Fe (0–24), mean (CV[%]) ([12]; 10 mg (n = 8)): 51.79 (24.95) % | Fe (0–24), mean (CV[%]) ([12]; 20 mg (n = 8)): 50.42 (20.58) % | Fe (0–24), mean (CV[%]) ([12]; 40 mg (n = 8)): 48.06 (13.48) % | Fe (0–24), mean (CV[%]) ([12]; 60 mg (n = 8)): 50.48 (24.14) % | Fe (0–24), mean (CV[%]) ([12]; 80 mg Cohort 5 (n = 7)): 43.69 (36.76) % | Fe (0–24), mean (CV[%]) ([12]; 80 mg Cohort 6 (n = 6)): 37.21 (35.47) %
